Measured values from patent publication US20210353749A1, “GUANABENZ AS AN ADJUVANT FOR IMMUNOTHERAPY” (UNIVERSITÉ CATHOLIQUE DE LOUVAIN, priority 2018, published 2021).

What was measured:
[1] = system: Mouse TCRP1A CD8+ T cells; experiment: CD107 cytotoxicity assay (degranulation assay), mouse T cells; type: cell-based; conditions: 16 hours
Procedure: Mouse TCRP1A CD8^+ T cells: P1A-specific (TCRP1A) CD8^+ T cells were isolated from spleens and lymph nodes of TCRP1A mice using anti-mouse CD8a (Ly-2) MicroBeads (Miltenyi Biotec).
CD107 cytotoxicity assay (Degranulation assay): TCRP1A CD8^+ T cells were plated at 50,000 cells per well in a 96 U plate with different concentrations of guanabenz and incubated at 37° C. overnight prior to their use in the assay on the next day. On the day of the assay, the culture supernatant was removed from the cells and the cells were washed once with complete medium to remove the drug. The target cells L1210-P1A-B7.1 were added to the wells at a ratio of 1:1. Control wells containing either only T cells or target cells were also included for each plate. CD107a-APC was added to each well at the same time as addition of the target cells. The plate was then incubated at 37° C. for 90 minutes. At the end of the incubation period the cells were harvested and washed once with PBS. They were stained with anti-mouse CD8-Bv421 antibody for 15 minutes. The cells were then washed and resuspended in PBS and analyzed using FACS Fortessa flow cytometer. Human CD8^+ T cell degranulation was evaluated in a similar way. To induce CD8^+ T cell degranulation, T2 cells loaded with synthetic WT1126-134 peptide (10^6 T2 cells were incubated for 1 hour in 200 μL Optimem medium with 100 μmol/L synthetic peptide at 37° C.) were used as target cells.
(§1) T cells were incubated with guanabenz (10, 20, or 40 μM) for 16 h to 24 h as indicated. Mice received a daily intra-peritoneal injection of guanabenz (5 mg/kg) or vehicle (PBS) from the day of randomization (and the day of ACT when applicable) until the day of sacrifice.
CD107 cytotoxicity assay (Degranulation assay): the assay was carried out as described hereinabove (see Example 1) with different 20 μM guanabenz or different concentrations of alprenolol or sunitinib, as indicated.
T cells were incubated with 20 μM guanabenz for 16 h as indicated.
T cells were incubated with alprenolol (5 or 20 μM) for 16 h as indicated. […]

[2] = system: T429.11 transplanted tumor; experiment: TiRP-derived T429.11 transplanted melanoma model; type: in vivo, mouse
Procedure: TiRP-derived T429.11 transplanted melanoma model: T429.11 clone was derived from an induced Amela TiRP tumor referred to as T429. It was cloned from the T429 induced melanoma primary tumor line. Two million of T429.11 tumor cells were injected subcutaneously into recipient mice for tumor establishment (Zhu et al, Nat Commun 2017, 10; 8(1):1404).
as §1
The T429.11 transplanted melanoma model was previously shown not to respond to anti-PD-1 and anti-CTLA4 therapy (Zhu et al., Nature communications. Nov. 10 2017; 8(1):1404). T429.11 transplanted tumor bearing mice received daily injections of guanabenz (5 mg/kg, i.p.) or vehicle (PBS, i.p.) from the day when the tumor size was around 1000 mm^3 (day 1) until the day of sacrifice (day 6). […] As shown on FIG. 2B, the decreased tumor growth was accompanied with an increased tumor infiltration of CD8^+ T cells.

TiRP tumor = experiment: TiRP melanoma model with adoptive cell transfer of naïve P1A-specific CD8+ T cells; type: in vivo, mouse; conditions: guanabenz 5 mg/kg i.p. daily with ACT of 2 million naïve T cells, 4 days after the ACT, vs control; FIG. 6
Procedure: FIG. 6 is a histogram showing the tumor infiltration of P1A-specific CD8^+ T cells evaluated 4 days after ACT of naïve TCRP1A CD8^+ T cells by FACS in mice that received guanabenz (5 mg/kg, i.p.) or vehicle (PBS, i.p.). In the preceding experiments, before being transferred to TiRP-tumor bearing mice, the P1A-specific CD8^+ T were pre-activated in vitro by co-culture with irradiated L1210-P1A-B7.1 cells as described hereinabove. […] TiRP-tumor bearing mice were administered an adoptive cell transfer (ACT) of 2 million of naïve P1A-specific CD8^+ T cells and daily injections of guanabenz from the day of the ACT. […] Thus, when the mice were administered guanabenz, the transferred naïve CD8^+ T cells were properly primed and populated the tumor.

[3] = system: Mouse TCRP1A CD8+ T cells; experiment: IFNγ secretion assay (ELISA), mouse T cells; type: cell-based; conditions: guanabenz 10, 20 or 40 μM, 16 h to 24 h, co-culture with L1210-P1A-B7.1 target cells; FIG. 1B
Procedure: Mouse TCRP1A CD8^+ T cells: P1A-specific (TCRP1A) CD8^+ T cells were isolated from spleens and lymph nodes of TCRP1A mice using anti-mouse CD8a (Ly-2) MicroBeads (Miltenyi Biotec). IFNγ secretion assay: CD8^+ T cells were plated at 50,000 cells per well in a 96 U plate with different concentration of guanabenz in full medium supplemented with IL2 and incubated at 37° C. overnight prior to their use in the assay on the next day. On the day of the assay, the culture supernatant was removed from the cells and the cells were washed once with complete medium to remove the drug completely. The target cells L1210-P1A-B7.1 or T2 cells loaded with WT1126-134 peptide were added to the wells at a ratio of 1:1. Control wells containing either only T cells or […] were also included for each plate. The plate was then incubated at 37° C. overnight. At the end of the incubation period the supernatant was collected and the amount of IFNγ was measured by ELISA according to manufacturer's instruction (R&D). T cells were incubated with guanabenz (10, 20, or 40 μM) for 16 h to 24 h as indicated. Mice received a daily intra-peritoneal injection of guanabenz (5 mg/kg) or vehicle (PBS) from the day of randomization (and the day of ACT when applicable) until the day of sacrifice.

Which “T cell degranulation (FACS detection of CD107a)” value ([1]; guanabenz 20 μM, vs control, FIG. 12A) does the source give for `NC(N)=N/N=C/c1c(Cl)cccc1Cl` [guanabenz, 2-[(E)-(2,6-dichlorophenyl)methylideneamino]guanidine] here?
Its value is “did significantly increase”.

What about the “T cell degranulation (FACS detection of CD107a)” value ([1]; guanabenz 10, 20 or 40 μM, co-culture with L1210-P1A-B7.1 target cells, FIG. 1A) of the same compound?
The value was “increased”.

And the tumor growth ([2]; 5 mg/kg i.p. daily from tumor size around 1000 mm^3 (day 1) to day 6, vs vehicle, FIG. 2A)?
The tumor growth was “inhibited tumor growth”.

What about the “tumor infiltration of CD8+ T cells (FACS)” value ([2]; 5 mg/kg i.p. daily, day of sacrifice (day 6), vs vehicle, FIG. 2B) of the same compound?
Its value is “increased”.

And the “tumor infiltration of P1A-specific CD8+ T cells” value (TiRP tumor)?
Its value is “significantly increased”.

And the “secretion of IFNγ (ELISA)” value [3]?
Its value is “increased”.
